Source: patent publication US7572910B2, “Pyridazinone aldose reductase inhibitors” (Pfizer, Inc., priority 2004, dated 2009)

SMILES | melting point
Cn1c(S(=O)(=O)c2ccc(=O)[nH]n2)cc2ccccc21 [Example 40, 6-(N-Methylindole-2-sulfonyl)-2H-pyridazin-3-one] | 233 to 235 °C
O=c1ccc(S(=O)(=O)c2oc3ccccc3c2O)n[nH]1 [Example 16, 6-(3-Hydroxy-benzofuran-2-sulfonyl)-2H-pyridazin-3-one] | 186 to 189 °C
O=c1ccc(S(=O)(=O)c2[nH]c3ccccc3c2Cl)n[nH]1 [Example 36, 6-(3-Chloro-indole-2-sulfonyl)-2H-pyridazin-3-one] | 250 °C
